Source: US20090280060A1, “PHOTOCHROMIC PROBES” (priority 2004, published 2009)

B1: Constitutively active cofilin: constitutively active S3A cofilin (protein, UniProt P23528 2-166, looked up, variant S3A)
Cofilin-1: AAGVAVSDGVIKVFNDMKVRKSSTPEEVKKRKKAVLFCLSEDKKNIILEEGKEILVGDVGQTVDDPYATFVKMLPDKDCRYALYDATYETKESKKEDLVFIFWAPESAPLKSKMIYASSKDAIKKKLTGIKHELQANCYEEVKDRCTLAEKLGGSAVISLEGKPL
B2: Uncaged cofilin: caged cofilin after light-directed uncaging (protein, UniProt P23528 2-166, looked up, variant S3A)
Cofilin-1: AAGVAVSDGVIKVFNDMKVRKSSTPEEVKKRKKAVLFCLSEDKKNIILEEGKEILVGDVGQTVDDPYATFVKMLPDKDCRYALYDATYETKESKKEDLVFIFWAPESAPLKSKMIYASSKDAIKKKLTGIKHELQANCYEEVKDRCTLAEKLGGSAVISLEGKPL
modifications: uncaged after photolysis
notes: caged cofilin after light-directed uncaging
B3: caged cofilin: constitutively active S3A cofilin caged with 3-5 NVOC groups by the NVOC-Cl approach (protein, UniProt P23528 2-166, looked up, variant S3A)
Cofilin-1: AAGVAVSDGVIKVFNDMKVRKSSTPEEVKKRKKAVLFCLSEDKKNIILEEGKEILVGDVGQTVDDPYATFVKMLPDKDCRYALYDATYETKESKKEDLVFIFWAPESAPLKSKMIYASSKDAIKKKLTGIKHELQANCYEEVKDRCTLAEKLGGSAVISLEGKPL
modifications: caged with 3-5 NVOC groups

Tests used:
[1] = molecular target: T1, G-actin (Oryctolagus cuniculus, UniProt P68135); assay: Fluorescence excitation and emission spectra of G-actin conjugates; type: physicochemical, Rabbit; parameters: Rabbit muscle G-actin was purified according to Marriott; from tissue; host or cells: rabbit muscle; settings: for MC emission maximum of G-actin conjugate: excitation wavelength of 370 nm
Excerpt: FIG. 3. (A), Technical fluorescence excitation spectrum of the G-actin conjugate of compound 12, showing the S0-S2 (centered at 370 nm) and S0-S1 (centered at 558 nm) excitation bands of MC. The emission was monitored at an emission wavelength of 650 nm. (B), Normalized, technical emission spectra of G-actin conjugates of compounds: a), 3 (624 nm); b), 12 (622 nm); c), 6 (628 nm); d), 13 (630 nm). The emission from the MC state in each conjugate was generated using an excitation wavelength of […].
(§1) MATERIALS AND METHODS. Instrumentation. ^1H NMR spectra were measured on a Brucker Ac 300 MHz; mass spectra were carried out on a Micromass AutoSpec for EI, a Micromass LCT for ESI, or a Bruker REFLEX II for MALDI. Absorption spectra were recorded on a Hewlett-Packard 82152 diode array spectrophotometer or a Shimadzu 1601 PC instrument. Fluorescence spectroscopy was performed on an SLM-AB2 instrument (Thermoelectron, Madison, Wis.) or an ISS PC1 (Champaign, Ill.). Light-directed switching of the probes described in this work was achieved by irradiating the sample (120-1000 μL) with the 365 nm or 546 nm lines of a 100 W Hg-arc lamp (Zeiss).
Further information on MC-solvent interactions can be derived from studying the fluorescence properties of MC. From a practical standpoint, fluorescence from ^1MC* is best studied by exciting the spirobenzopyran with mid-ultraviolet light (S0-S2 transition)—this condition maintains a uniform population of MC excited state molecules (see Jablonski diagram, FIG. 4A). Contrary to the ground state studies, the inventors find that the average energy of the MC fluorescence is insensitive to the solvent (water, 2-propanol, 1,2-propanediol and acetonitrile; data not shown) and to the location of MC probe on G-actin (FIG. 3B).

[2] = molecular target: BSA (Bos taurus, UniProt P02769); assay: Absorption spectra of MC probes attached to a cysteine residue on BSA; type: physicochemical; settings: MC state, probe attached to a cysteine residue on BSA
BSA, sequence (P02769 25-607): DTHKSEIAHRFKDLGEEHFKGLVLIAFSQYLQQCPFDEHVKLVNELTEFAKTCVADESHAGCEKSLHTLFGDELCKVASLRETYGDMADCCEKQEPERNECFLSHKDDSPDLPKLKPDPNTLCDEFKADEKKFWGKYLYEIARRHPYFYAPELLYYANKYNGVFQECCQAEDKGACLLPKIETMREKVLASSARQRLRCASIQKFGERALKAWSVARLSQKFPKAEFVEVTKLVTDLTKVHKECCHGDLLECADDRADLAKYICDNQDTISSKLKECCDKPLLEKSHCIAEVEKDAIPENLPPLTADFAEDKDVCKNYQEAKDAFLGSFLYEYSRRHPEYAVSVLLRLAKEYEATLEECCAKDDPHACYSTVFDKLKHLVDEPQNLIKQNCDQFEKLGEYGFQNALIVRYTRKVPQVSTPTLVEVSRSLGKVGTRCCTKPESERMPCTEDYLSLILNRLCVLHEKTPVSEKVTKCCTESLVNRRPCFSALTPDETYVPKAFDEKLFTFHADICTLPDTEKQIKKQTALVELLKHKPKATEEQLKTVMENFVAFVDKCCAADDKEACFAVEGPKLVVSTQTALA
Experimental: BSA: BSA conjugates of the spirobenzopyran reagents were prepared in a similar fashion to that described for G-actin yielding similar labeling ratios (FIG. 5C). The absorption spectrum of the five MC probes attached to a cysteine residue on BSA are centered at 544.5 nm (18,365 cm^−1) for compound 6,534 nm ([…]) for compound 12, 520 nm (19,231 cm^−1) for compounds 9; 503.5 nm (19,861 cm^−1) for compound 13. The difference in the energy of the absorption bands for these conjugates of 1496 cm^−1 is a little less than that found between the same probes on G-actin but again is significant in terms of the free energy of complex formation between BSA and its ligands. These confirm the conclusion that the protein matrix is made up of a complex dipolar landscape.

[3] = molecular target: T1, G-actin; assay: Absorption spectra of MC state of probes attached to cysteine-374 on G-actin; type: physicochemical, Rabbit; parameters: Rabbit muscle G-actin was purified according to Marriott; from tissue; host or cells: rabbit muscle; settings: probe attached to cysteine-374 of G-actin
Experimental: as §1
Rabbit muscle G-actin was purified according to Marriott^14 in G-buffer (2 mM Tris, 0.2 mM CaCl2, and 0.2 mM ATP at pH 8.0). The concentration of G-actin was determined by absorption spectroscopy using an extinction coefficient of 3400 M^−1 cm^−1 at 290 nm^14. 1 ml of a 20 μM solution of G-actin was treated with 20 μL of a 10 mM DMF stock solution of each thiol reactive, spirobenzopyran probe. The reaction mixture was left in the dark for 2 hours at room temperature. The protein was centrifuged for 10 min at 2000 g at 4° and applied to a Bio-Rad PD-10 column equilibrated in G-buffer containing 1 mM DTT. […]
G-Actin: The reaction between a ten-fold molar excess of thiol reactive, spirobenzopyran reagents and 20 μM G-actin at 20° is complete within 2 hours. The concentration of spirobenzopyran in each conjugate is determined from the value of the absorption maximum of the SP form of G-actin conjugates using an extinction coefficient of 35,000 M^−1cm^−1 at 350 nm^15 (FIG. 5A) The absorption spectra of the MC and SP states are not affected by the labeling ratio (spirobenzopyran/G-actin, which varies from 0.6 to 0.8 within the different conjugates. Cysteine-374 is located at an important site on G-actin and has been implicated in several important interactions of actin that include protomer-contacts within F-actin^23, the binding of the actin filament capping proteins Gelsolin and CapG^24 and the motor protein, myosin II^25. […]

[4] = tested on: fertilized xenopus oocytes; assay: Cell division in microinjected fertilized xenopus oocytes; type: in vivo; settings: microinjection at the 4 cell stage
Experimental: Light directed activation of constitutively active caged cofilin. Caged cofilin (constitutively active S3A) was prepared independently of Ghosh et al (2004) using our standard NVOC-Cl approach (Marriott, 1994) that is described above for caged CapG. […] Oocytes were microinjected with caged fluorescein dextran (Molecular Probes) and concentrated caged cofilin (5 mg/ml) at the 4 cell stage—we estimate that the intracellular concentration of cofilin is the two injected cells is between 30˜50 μM. Irradiation of all four cells in the embryo with 365 nm light for 2 seconds generated fluorescein and green fluorescence, and by implication cofilin, from their caged precursors in the two injected cells. […] We conclude from these studies that the increased concentration of cofilin generated by uncaging inhibits actin filament dynamics and cytokinesis (Bamburg, 1999).

[5] = molecular target: T2, F-actin (Oryctolagus cuniculus, UniProt P68135); assay: Prodan-F-actin depolymerization kinetics after dilution; type: biochemical; settings: Prodan actin emission ratio 465/502 nm, dilution below the critical concentration
T2 construct: Rabbit muscle G-actin is purified according to Marriott (1994); from tissue; host or cells: rabbit muscle

[6] = G-actin conjugate, emission monitored at 650 nm

Molecule | MC emission maximum of G-actin conjugate [1] | MC absorption spectrum centre on BSA [2] | MC absorption maximum on G-actin [3] | effect on cell division / cytokinesis [4] | effect on rate of F-actin depolymerization [5] | further results
8-(Iodomethyl)spirobenzopyran [compound 3] | 624 nm |  |  |  |  | 
6′-(Bromomethyl)spirobenzopyran [compound 13] | 630 nm | 503.5 nm | 551.5 nm |  |  | 
4′-(Bromomethyl)spirobenzopyran [compound 9] |  | 520 nm | 500 nm |  |  | 
wild type cofilin: wild type cofilin, inactivated by phosphorylation at Ser-3 |  |  |  | no effect on cell division |  | 
6′-(Maleimidomethyl)spirobenzopyran [compound 12] | 622 nm |  | 551.5 nm |  |  | S0-S1 excitation band of MC, centre [1, 6]: 558 nm; S0-S2 excitation band of MC, centre [1, 6]: 370 nm
CC1(C)c2ccccc2N(CCN2C(=O)C=CC2=O)C12C=Cc1cc([N+](=O)[O-])ccc1O2 (stereo not shown) [compound 6, 1′-(Maleimidoethyl)spirobenzopyran] | 628 nm | 544.5 nm |  |  |  | 
B1 |  |  |  | inhibited cytokinesis | increases the rate of F-actin depolymerization | 
B2 |  |  |  |  | restores a substantial fraction of the cofilin activity | 
B3 |  |  |  | failed to undergo further divisions | did not accelerate the rate of F-actin depolymerization | effect on cell division / cytokinesis ([4]; listed as caged constitutively active cofilin): inhibits cytokinesis
